“Also recorded” adds a separate entry of the source. Structures can show the parent of a compound that is named as a salt.

This note sets out measurements from patent publication EP1591123A1, “USES OF NARINGENIN, NARINGIN AND SALTS THEREOF AS EXPECTORANTS IN THE TREATMENT OF COUGH, AND COMPOSITIONS THEREOF” (Su, Wei-wei, priority 2003, dated 2004).

The subject of one data set is mice. Nature of the data set: Dispel phlegm test of Naringin, Phenol Red excretion in trachea (Example 29). Format: in vivo. The conditions noted are these: for Dispel phlegm ratio: group given drug / blank control group x 100%; for Excretion quantity of Phenol Red / Rectified excretion quantity of Phenol Red: mice, oral, X±S; for Rectified excretion quantity of Phenol Red: excretion quantity / weight of animal. On the procedure: 1. […] Every group was 10 animals. Eight group were set including negative control group, positive control group, high dose group of Naringin, middle dose group of Naringin, low dose group of Naringin, high dose group of sodium salt of Naringin, middle dose group of sodium salt of Naringin, low dose group of sodium salt of Naringin. […]
• 1) Blank control group: physiological saline, 0.9% NaCl; • 2) Positive control group: 0.2g Tankejing was dissolve into 10 ml physiological saline and the sample concentration was 20 mg/ml to obtain the solution for positive control. • 3) low dose group of Naringin: 0.5 mg/ml solution of Naringin was prepared by weighting out the appropriate amount of 5 mg Naringin and dissolving it by ultrasonication in 10 ml physiological saline. • 4) middle dose group of Naringin: 1.5 mg/ml solution of Naringin was prepared by weighting out the appropriate amount of 15 mg Naringin and dissolving it by ultrasonication in 10 ml physiological saline. • 5) high dose group of Naringin: 4.5 mg/ml solution of Naringin was prepared by weighting out the appropriate amount of 45 mg Naringin and dissolving it by ultrasonication in 10 ml physiological saline. • 6) low dose group of sodium salt of Naringin: 0.5 mg/ml solution of sodium salt of Naringin was prepared by weighting out the appropriate amount of 5 mg sodium salt of Naringin and dissolving it by ultrasonication in 10 ml physiological saline. • 7) middle dose group of sodium salt of Naringin: 1.5 mg/ml solution of sodium salt of Naringin was prepared by weighting out the appropriate amount of 15 mg sodium salt of Naringin and dissolving it by ultrasonication in 10 ml physiological saline. • 8) high dose group of sodium salt of Naringin: 4.5 mg/ml solution of sodium salt of Naringin was prepared by weighting out the appropriate amount of 45 mg sodium salt of Naringin and dissolving it by ultrasonication in 10 ml physiological saline.
The calibration curve was calculated by concentration of Phenol Red as y-axis and OD value as x-axis. And the excretion account of Phenol Red in mice was quantitated by calibration curve. • 2) Animals were fasted for 12 hr before dosing. • 3) Animals were oral administered with labeled number, each animal was administered with 3 min and each group was accomplished in 30 min. • 4) After administered 30 min, every animal was injected 2 ml 5% Phenol Red solution via celiac injection. The time of every animal was 3 min. • 5): Every animal was executed with 3 min interval after celiac injection 30 min, and animal trachea was peeled off with forceps after neck skin sniped, which was riveted on operating table. • 6): plasma and Phenol Red adhered to trachea ektexine was sweeped by 0.9% NaCl solution with an injector. And filter paper was used to blot up the solution. • 7): Scissors cut down the animal trachea including thyroid cartilage and trachea back-end. • 8): The trachea was set in test tube with 1.5 ml 5% NaHCO3. • 9): The experiment of every animal was completed in 3 min. […] X indicates OD value; Y indicates excretion account of Phenol Red. • 14): Rectified excretion account of Phenol Red was calculated by account of Phenol Red and weight of animal. Statistical significance of the data was determined by Student's t-test with SPSS 8.0. Rectified excretion account of Phenol Red= Account of Phenol Red (ng) / weight of animal (kg).

Another data set concerns NIH little mice. In words: Toxicological experiment, single oral dose, 10 days observation (Examples 32-35). The conditions noted are these: for dosage without toxic reaction as multiple of the normal dosage: oral dosage tested relative to normal dose for human beings; for changes in little mice's weight / toxic reaction / deaths of little mice / pathological inspection of each apparatus: oral; for changes in little mice's weight / toxic reaction: ten days; for deaths of little mice / pathological inspection of each apparatus: tenth day. Format: in vivo. On the procedure: With temperature in the range of 24±1 °C and humidity in the range of 65±5 %,choose 20 NIH little mice which are […] ,healthy and clean, male and female for each half ,their weights are between 20 and 22 gram.. Antisepsis the feed and water, before and in the layoff period of the test, all the mice should be feed under the normal feeding condition.
Dissolve Naringin in 0.5 % Tween80, the concentration is 300mg/ml,this liquor is given to little mice by oral access, the dosage is 0.2ml/20g weight of little mice. After administration ,they are observed for 1,4,8,12 hours, and then once per 12 hours. Observe the deaths of little mice ,and record the changes in little mice's weight as well as other symptoms. In the tenth day, kill little mice by breaking their necks, and take each apparatus for pathological inspection.
With temperature in the range of 25±1 °C and humidity in the range of 75±5 %,choose 20 NIH little mice which are […], healthy and clean, male and female for each half , their weights are between 18.5 and 20.5 gram.. Antisepsis the feed and water, before and in the layoff period of the test, all the mice should be feed under the normal feeding condition.
Dissolve Naringin sodium salt medicine in brine, the concentration is 300mg/ml, this liquor is given to little mice by oral access, the dosage is 0.2ml/20g weight of little mice. After administration ,they are observed for 1,4,8,12 hours, and then once per 12 hours. Observe the deaths of little mice, and record the changes in little mice's weights as well as other symptoms. In the tenth day, kill little mice by breaking their necks, and take each apparatus for pathological inspection.. […]

Consider `C[C@@H]1O[C@@H](O[C@H]2[C@H](Oc3cc(O)c4c(c3)O[C@H](c3ccc(O)cc3)CC4=O)O[C@H](CO)[C@@H](O)[C@@H]2O)[C@H](O)[C@H](O)[C@H]1O` [sodium salt of Naringin], for which, in the data set with mice (5 mg/kg), the Dispel phlegm ratio is 169.37%, the “Excretion quantity of Phenol Red” value was 0.5250 ± 0.1265 ng and the “Rectified excretion quantity of Phenol Red” value (shortened to “Rectified excretion quantity”) turned out to be 26.1805 ± 6.9069 ng/kg. Further, in the data set on mice (15 mg/kg), the Dispel phlegm ratio worked out at 189.65%, the “Excretion quantity of Phenol Red” value amounted to 0.5748 ± 0.1417 ng and the “Rectified excretion quantity” value was 29.3153 ± 7.7189 ng/kg. Also, in the data set with mice (45 mg/kg), the Dispel phlegm ratio is recorded as 432.71%, the “Excretion quantity of Phenol Red” value turned out to be 1.3115 ± 0.3232 ng and the “Rectified excretion quantity” value worked out at 66.8867 ± 17.6117 ng/kg. Further, the “dosage without toxic reaction as multiple of the normal dosage” value (“dosage without toxic reaction” for short) in the data set with NIH little mice is 230. In the data set with NIH little mice (3.0g/kg), the “changes in little mice's weight” value was “weights of little mice are not found lightening”, the “deaths of little mice” value was “all little mice are still alive” and the “pathological inspection of each apparatus” value (“pathological inspection” below) is on record as “pathological changes have not been found”. Besides, in the data set on NIH little mice (3.0g/kg, listed as Naringin sodium salt), the toxic reaction result was “toxic reaction can't be found”.
As for `C[C@@H]1O[C@@H](O[C@H]2[C@H](Oc3cc(O)c4c(c3)O[C@H](c3ccc(O)cc3)CC4=O)O[C@H](CO)[C@@H](O)[C@@H]2O)[C@H](O)[C@H](O)[C@H]1O` [Naringin, 4', 5', 7-trihydroxyflavanone-7-rhamnoneglucoside], in the data set on mice (5 mg/kg), the Dispel phlegm ratio was determined as 159.02%, the “Excretion quantity of Phenol Red” value was found to be 0.4914 ± 0.2215 ng and the “Rectified excretion quantity” value stood at 25.5811 ± 11.8338 ng/kg. For the same compound, in the data set on mice (15 mg/kg), the Dispel phlegm ratio is 173.12%, the “Excretion quantity of Phenol Red” value was 0.5296 ± 0.2195 ng and the “Rectified excretion quantity” value worked out at 26.7597 ± 13.1502 ng/kg. In the data set with mice (45 mg/kg), the Dispel phlegm ratio turned out to be 416.72%, the “Excretion quantity of Phenol Red” value was 1.1488 ± 0.2431 ng and the “Rectified excretion quantity” value was found to be 64.4162 ± 18.7239 ng/kg. The dispel phlegm effect entry with mice (high dose group compared to positive control group of Tankejing) was “statistical better than Tankejing”. In the data set with mice (three doses (low, middle, high), versus negative control group), the “exudates increase of mice trachea” value is “statistical significance stimulate the exudates increase of mice trachea”. Also, the “dosage without toxic reaction” value with NIH little mice was 230. Further, in the data set with NIH little mice (3.0g/kg), the “changes in little mice's weight” value is recorded as “weights of little mice are not found lightening”, the toxic reaction entry was “toxic reaction can't be found; also recorded: haven't toxic reaction”, the “deaths of little mice” value was “all little mice are still alive” and the “pathological inspection” value was “pathological changes have not been found”.
As to `O=C1C[C@@H](c2ccc(O)cc2)Oc2cc(O)cc(O)c21` [sodium salt of Naringenin], in the data set on NIH little mice, the “dosage without toxic reaction” value was 460. Further, in the data set with NIH little mice (6.0g/kg), the “changes in little mice's weight” value is given as “weights of little mice are not found lightening”, the toxic reaction entry is given as “toxic reaction can't be found”, the “deaths of little mice” value was “all the little mice are still alive” and the “pathological inspection” value is given as “pathological changes have not been found”.
On the same counts, the results for `O=C1CC(c2ccc(O)cc2)Oc2cc(O)cc(O)c21` (stereo not shown) [Naringenin, 4', 5, 7 -trihydroxyflavanone] are 460, “weights of little mice are not found lightening”, “toxic reaction can't be found; also recorded: hasn't toxic reaction”, “all little mice are still alive” and “pathological changes have not been found”.
